This is an account of results in EP0084516B1, “Anthelmintics” (CIBA-GEIGY AG, priority 1982, dated 1983).

“And” between values parts separate entries of the source, which are not always exact repeats. Identical values can stand only once.

Assay [1] deals with Fasciola hepatica. Description: Tests on sheep artificially infected with Fasciola hepatica metacercariae (faecal egg counts and adult fluke counts at autopsy). The assay is classed as in vivo, Schafe. The following applies: B 4,6 mg/kg, individual sheep.
The test system of assay [2] is 6wöchige und jüngere Leberegel. The settings on record: comparable dose; from Austral. Vet. J. 55, 431-432, 1979; Brit. Vet. J. 138,371-382, 1982; cited from earlier work.
Assay [3] deals with Fasciola hepatica. Nature of the assay: Tests on sheep artificially infected with Fasciola hepatica metacercariae (faecal egg counts and adult fluke counts at autopsy). Type of assay: in vivo, Schafe. The settings on record: for Adulte Egel bei Autopsie Mittelwert: group mean. As for the experimental part:
Versuche an mit Fasciola hepatica infizierten Schafen
36 Schafe wurden artifiziell mit Metacercarien von Fasciola hepatica infiziert. Zu diesem Zweck wurden die Metacercarien in einer wäßrigen 0,4%igen Suspension von Carboxymethylcellulose direkt in den Rumen der Versuchstiere injiziert. Die Tiere wurden dann für die Medikierung in etwa gleichgroße Gruppen und in drei Kontrollgruppen eingeteilt. Nach 4 Wochen wurden die Wirkstoffe in Dosen von 5 bis 10 mg/kg Körpergewicht je nach vorgesehener Kombination an die Versuchstiere verabreicht.
Während des Versuchs wurden die Schafe in Gehegeboxen unter Normalbedingungen gehalten.
Zur Prüfung der Wirkung der einzelnen Wirkstoffkombinationen wurden mit einer Standardtechnik 12 bis 15 Wochen nach Infizierung bzw. 8 bis 11 Wochen nach Medikierung die von den Leberegeln abgelegten Eier im Kot gezählt. Anschließend wurden die Versuchstiere getötet, soweit sie nicht zur Gruppe B und Kontrollgrupe B' gehörten (Tiere Nr. 26-36), und es wurde die Zahl der vorhandenen Leberegel festgestellt.

Consider `CCCSc1ccc2nc(NC(=O)OC)[nH]c2c1` [Substanz B, [5-(Propylthio)-1 H-benzimidazol-2-yl]-carbaminsäuremethylester], for which, in assay [1] (given 4 weeks after infection, week 12 after infection), the “EPG* 12. Woche” value is 360 pro gr Faeces and 370 pro gr Faeces and 290 pro gr Faeces and 880 pro gr Faeces. Besides, the “EPG* 13. Woche” value in assay [1] (week 13 after infection) is 1110 pro gr Faeces and 560 pro gr Faeces and 370 pro gr Faeces and 1280 pro gr Faeces. Moreover, the “Wirkung gegen 6wöchige und jüngere Leberegel” value in assay [2] is “unwirksam”.

`CSc1nc2cc(Cl)c(Oc3cccc(Cl)c3Cl)cc2[nH]1` [Substanz A, 5-Chlor-6-(2',3'-dichlorphenoxy)-2-methylthiobenzimidazol]: in assay [3] (A 5,0 mg/kg, given 4 weeks after infection, individual sheep), the “Adulte Egel bei Autopsie Anzahl” value was 12 and 23 and 2 and 14 and 0. Also, the “EPG* 14. Woche” value in assay [3] (A 5,0 mg/kg, given 4 weeks after infection, liver fluke eggs per g faeces, week 14 after infection, individual sheep) was 65 pro gr Faeces and 60 pro gr Faeces and 0 pro gr Faeces (2×) and 10 pro gr Faeces. Moreover, the “EPG* 15. Woche” value in assay [3] (A 5,0 mg/kg, given 4 weeks after infection, week 15 after infection, individual sheep) is 125 pro gr Faeces and 60 pro gr Faeces and 5 pro gr Faeces and 0 pro gr Faeces (2×). Besides, the “Adulte Egel bei Autopsie Mittelwert” value in assay [3] (A 5,0 mg/kg, sheep 1-5) is 10,2. The “Adulte Egel bei Autopsie % Reduktion” value in assay [3] (A 5,0 mg/kg, versus untreated control A') is on record as 89,4%.

As to `COC(=O)Nc1nc2ccc(Sc3ccccc3)cc2[nH]1` [Substanz C, [5-(Phenylthio)-1 H-benzimidazol-2-yl]-carbaminsäuremethylester, reference compound], in assay [3] (C 5,0 mg/kg, given 4 weeks after infection, Tabelle 2, individual sheep), the “Adulte Egel bei Autopsie Anzahl” value is 54 and 77 and 82. Besides, in assay [3] (C 5,0 mg/kg, Tabelle 2, sheep 20-22), the “Adulte Egel bei Autopsie Mittelwert” value is 71. Also, the “Adulte Egel bei Autopsie % Reduktion” value in assay [3] (C 5,0 mg/kg, Tabelle 2, versus untreated control C') is on record as 0%.
